Assay [1] addresses T1, PAR2 (HT-29 cells, SLIGKV activation) (Homo sapiens, UniProt P55085).
T1 construct: host or cells: HT-29 cells
T1 sequence (P55085 26-397): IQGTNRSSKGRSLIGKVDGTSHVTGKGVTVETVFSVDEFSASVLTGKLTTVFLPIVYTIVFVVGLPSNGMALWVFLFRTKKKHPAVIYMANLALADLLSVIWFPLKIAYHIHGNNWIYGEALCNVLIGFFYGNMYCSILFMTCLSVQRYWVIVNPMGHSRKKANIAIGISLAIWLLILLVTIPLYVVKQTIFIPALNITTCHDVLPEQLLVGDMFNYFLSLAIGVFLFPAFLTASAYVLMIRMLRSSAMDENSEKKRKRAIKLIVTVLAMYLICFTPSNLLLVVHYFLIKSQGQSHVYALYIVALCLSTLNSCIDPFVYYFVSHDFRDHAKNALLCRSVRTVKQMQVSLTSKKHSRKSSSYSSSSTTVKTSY
The experiment in a line: Ca FLIPR TETRA assay, ANTAGONIST mode, stimulation with 8 μM SLIGKV. The conditions noted are these: HT-29 cells, stimulation with 8 μM SLIGKV. In kind it is cell-based. The method, boiled down:
(§1)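 HT-29 cells grown overnight in 1% FBS McCoy's medium were loaded with calcium 5 dye (45 min 37 °C, 15 min r.t.). Compounds were added and Ca2+ read for direct activation, then after 30 min at r.t. cells were stimulated with 8 μM SLIGKV, 1 U/mL thrombin, 3.1 U/mL trypsin or 0.6 μM UTP (final).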

Assay [2] deals with T2, PAR2 (HT-29 cells, trypsin activation) (Homo sapiens, UniProt P55085).
T2 construct: host or cells: HT-29 cells
T2 sequence (P55085 26-397): T1 sequence (P55085 26-397)
Kind of assay: Ca FLIPR TETRA assay, ANTAGONIST mode, stimulation with 3.1 U/mL trypsin. In kind it is cell-based. The following applies: HT-29 cells, stimulation with 3.1 U/mL trypsin. In outline:
as §1

Assay [3] concerns Thrombin-stimulated Ca2+ response in HT-29 cells. Kind of assay: Ca FLIPR TETRA assay, ANTAGONIST mode, stimulation with 1 U/mL Thrombin. The following applies: Homo sapiens; HT-29 cells, stimulation with 1 U/mL Thrombin. It counts as cell-based, human. The method, boiled down:
as §1

Assay [4] has as its system UTP-stimulated Ca2+ response in HT-29 cells. Kind of assay: Ca FLIPR TETRA assay, ANTAGONIST mode, stimulation with 0.6 μM UTP. In kind it is cell-based, human. The following applies: Homo sapiens; HT-29 cells, stimulation with 0.6 μM UTP. In outline: as §1

Consider 31 compounds from US20190119282A1, “IMIDAZOPYRIDAZINES USEFUL AS INHIBITORS OF THE PAR-2 SIGNALING PATHWAY” (Vertex Pharmaceuticals Incorporated, priority 2013, published 2019).

`CC(C)c1cc(-c2ccc(F)cc2)nn2cc(C(=O)N3CCN(C(=O)C4(NC(=O)OC(C)(C)C)CCC4)[C@@H](C)C3)nc12` [Compound I-149]: the IC50 is 0.03 µM in assay [1], 0.057 µM in assay [2], over 50 µM in assay [3] and over 50 µM in assay [4].

For the compound `CC(C)c1cc(-c2ccc(F)cc2)nn2cc(C(=O)N3CCN(C(=O)C4(NC(=O)OC(C)(C)C)CCCCC4)[C@@H](C)C3)nc12` [Compound I-150], the IC50 in assay [1] is 0.074 µM; in assay [2] it was 0.23 µM; in assay [3], over 50 µM; in assay [4], 84 µM.

Take `CC(C)c1cc(-c2ccc(F)cc2)nn2cc(C(=O)N3CCN(C(=O)C(C)(C)NC(=O)OCc4ccccc4)[C@@H](C)C3)nc12` [Compound I-151]: the IC50 was 0.063 µM in assay [1], 0.16 µM in assay [2], over 50 µM in assay [3] and over 50 µM in assay [4].

With `CC(C)c1cc(-c2ccc(F)cc2)nn2cc(C(=O)N3CCN(C(=O)[C@H](O)C(C)(C)C)[C@@H](C)C3)nc12` [Compound I-152], the IC50 in assay [1] came out at 0.004 µM; in assay [2] it was 0.054 µM; in assay [3], 13 µM; in assay [4], 10 µM.

Regarding `Cc1cc(-c2ccc(F)cc2)nn2cc(C(=O)N3CCN(C(=O)[C@H](O)C(C)(C)C)[C@@H](C)C3)nc12` [Compound I-153], the half-inhibitory concentration (IC50) in assay [1] was 0.25 µM; in assay [2] it was 1.45 µM; in assay [3], 19 µM; in assay [4], 22 µM.

With `CC(C)c1cc(-c2ccc(F)cc2)nn2cc(C(=O)N3CCN(C(=O)C4(N)CC4)[C@@H](C)C3)nc12` [Compound I-154], the IC50 in assay [1] was 1.4 µM; in assay [2] it was 6.4 µM; in assay [3] it was over 50 µM; in assay [4] it was over 50 µM.

In the case of `CC(C)c1cc(-c2ccc(F)cc2)nn2cc(C(=O)N3CCN(C(=O)C4(N)CCC4)[C@@H](C)C3)nc12` [Compound I-155], the IC50 in assay [1] was 0.8 µM; in assay [2] it was 3.5 µM; in assay [3] it was 27 µM; in assay [4], 25 µM.

For `CC(C)c1cc(-c2ccc(F)cc2)nn2cc(C(=O)N3CCN(C(=O)C4(N)CCCCC4)[C@@H](C)C3)nc12` [Compound I-156], the concentration for half-maximal inhibition (IC50) worked out at 1.4 µM in assay [1], 6.8 µM in assay [2], 21 µM in assay [3] and 17 µM in assay [4].

For `CC(C)c1cc(-c2ccc(F)cc2)nn2cc(C(=O)N3CCN(C(=O)C(C)(C)N)[C@@H](C)C3)nc12` [Compound I-157], the IC50 in assay [1] was 5.7 µM; in assay [2] it was 14 µM; in assay [3], 40 µM; in assay [4], 38 µM.

Regarding `Cc1cc(-c2ccc(F)cc2)nn2cc(C(=O)N3CCN(C(=O)C(C)(C)O)[C@@H](C)C3)nc12` [Compound I-158], the concentration for half-maximal inhibition (IC50) in assay [1] was found to be 9.1 µM; in assay [2] it was 26 µM; in assay [3], 77 µM; in assay [4], 67 µM.

`Cc1cc(-c2ccc(F)cc2)nn2cc(C(=O)N3CCN(C(=O)C4(O)CCC4)[C@@H](C)C3)nc12` [Compound I-159]: the IC50 in assay [1] came to 7.3 µM; in assay [2], 17 µM; in assay [3] it was 42 µM; in assay [4], 36 µM.

Turning to `C=CC(=O)N1CCN(C(=O)c2cn3nc(-c4ccc(F)cc4)cc(C(C)C)c3n2)C(C)(C)C1` [Compound I-160], the IC50 in assay [1] was determined as 0.01 µM; in assay [2], 0.041 µM; in assay [3] it was 7.9 µM; in assay [4] it was 14 µM.

With `CCc1cc(-c2ccc(F)cc2)nn2cc(C(=O)N3CCN(C(=O)C(C)(C)O)CC3(C)C)nc12` [Compound I-161], the IC50 in assay [1] is 0.2 µM; in assay [2], 0.33 µM; in assay [3], 140 µM; in assay [4], 72 µM.

Turning to `CCc1cc(-c2ccc(F)cc2)nn2cc(C(=O)N3CCN(C(=O)C4(O)CCC4)CC3(C)C)nc12` [Compound I-162], the half-maximal inhibitory concentration (IC50) in assay [1] was found to be 0.11 µM; in assay [2], 0.16 µM; in assay [3], 35 µM; in assay [4], 35 µM.

As for `CCc1cc(-c2ccc(F)cc2)nn2cc(C(=O)N3CCN(C(=O)Cc4ccncc4)[C@@H](C)C3)nc12` [Compound I-163], the IC50 came out at 0.64 µM in assay [1], 1.7 µM in assay [2], 12 µM in assay [3] and 13 µM in assay [4].

With `CCc1cc(-c2ccc(F)cc2)nn2cc(C(=O)N3CCN(C(=O)CC4CCOCC4)[C@@H](C)C3)nc12` [Compound I-164], the IC50 in assay [1] turned out to be 0.2 µM; in assay [2] it was 2 µM; in assay [3], 54 µM; in assay [4] it was 54 µM.

With `CCc1cc(-c2ccc(F)cc2)nn2cc(C(=O)N3CCN(C(=O)[C@H](O)CC(C)(C)C)CC3(C)C)nc12` [Compound I-165], the IC50 came to 0.001 µM in assay [1], 0.002 µM in assay [2], 7.4 µM in assay [3] and 8 µM in assay [4].

For `CCc1cc(-c2ccc(F)cc2)nn2cc(C(=O)N3CCN(C(=O)[C@H](O)C(C)C)CC3(C)C)nc12` [Compound I-166], the half-inhibitory concentration (IC50) in assay [1] was 0.016 µM; in assay [2] it was 0.053 µM; in assay [3] it was 23 µM; in assay [4] it was 27 µM.

For the compound `CCc1cc(-c2ccc(F)cc2)nn2cc(C(=O)N3CCN(C(=O)[C@H](O)CC(C)C)CC3(C)C)nc12` [Compound I-167], the half-maximal inhibitory concentration (IC50) in assay [1] is 0.002 µM; in assay [2] it was 0.002 µM; in assay [3] it was 8.5 µM; in assay [4], 9.6 µM.

`CCc1cc(-c2ccc(F)cc2)nn2cc(C(=O)N3CCN(C(=O)[C@H](O)C(C)C)[C@@H](C)C3)nc12` [Compound I-168]: the half-inhibitory concentration (IC50) was 0.067 µM in assay [1], 0.35 µM in assay [2], 16 µM in assay [3] and 13 µM in assay [4].

As to `CCc1cc(-c2ccc(F)cc2)nn2cc(C(=O)N3CCN(C(=O)[C@H](O)CC(C)C)[C@@H](C)C3)nc12` [Compound I-169], the IC50 in assay [1] came out at 0.01 µM; in assay [2], 0.017 µM; in assay [3], 25 µM; in assay [4], 26 µM.

Regarding `CCc1cc(-c2ccc(F)cc2)nn2cc(C(=O)N3CCN(C(=O)[C@H](O)CC4CC4)[C@@H](C)C3)nc12` [Compound I-170], the IC50 in assay [1] worked out at 0.014 µM; in assay [2] it was 0.038 µM; in assay [3], 33 µM; in assay [4], 30 µM.

With `CC(C)c1cc(-c2ccc(F)cc2)nn2cc(C(=O)N3CCN(C(=O)[C@H](O)CC4CC4)[C@@H](C)C3)nc12` [Compound I-171], the IC50 in assay [1] is 0.003 µM; in assay [2] it was 0.005 µM; in assay [3] it was 15 µM; in assay [4] it was 15 µM.

Turning to `CCc1cc(-c2ccc(F)cc2)nn2cc(C(=O)N3CCN(C(=O)[C@H](O)C(C)(C)C)[C@@H](C)C3)nc12` [Compound I-172], the IC50 stood at 0.022 µM in assay [1], 0.33 µM in assay [2], 15 µM in assay [3] and 15 µM in assay [4].

In the case of `CCc1cc(-c2ccc(F)cc2)nn2cc(C(=O)N3CCN(C(=O)[C@H](O)CC4CC4)CC3(C)C)nc12` [Compound I-173], the IC50 in assay [1] came to 0.008 µM; in assay [2] it was 0.013 µM; in assay [3], 20 µM; in assay [4], 23 µM.

Regarding `CC(C)c1cc(-c2ccc(F)cc2)nn2cc(C(=O)N3CCN(C(=O)C(C)(C)O)CC3(C)C)nc12` [Compound I-174], the IC50 turned out to be 0.028 µM in assay [1], 0.055 µM in assay [2], 35 µM in assay [3] and 38 µM in assay [4].

On to `CC(O)C(=O)N1CCN(C(=O)c2cn3nc(-c4ccc(F)cc4)cc(C(C)C)c3n2)C(C)(C)C1` (stereo not shown) [Compound I-175], for which the concentration for half-maximal inhibition (IC50) in assay [1] was 0.023 µM; in assay [2], 0.06 µM; in assay [3], 41 µM; in assay [4] it was 34 µM.

For the compound `CC(C)c1cc(-c2ccc(F)cc2)nn2cc(C(=O)N3CCN(C(=O)C(O)C(C)C)CC3(C)C)nc12` (stereo not shown) [Compound I-176], the IC50 worked out at 0.006 µM in assay [1], 0.011 µM in assay [2], 14 µM in assay [3] and 17 µM in assay [4].

Turning to `CC(C)c1cc(-c2ccc(F)cc2)nn2cc(C(=O)N3CCN(C(=O)[C@H]4CCC(=O)N4)CC3(C)C)nc12` [Compound I-177], the IC50 in assay [1] was found to be 0.048 µM; in assay [2], 0.082 µM; in assay [3], 35 µM; in assay [4], 40 µM.

With `CC(C)c1cc(-c2ccc(F)cc2)nn2cc(C(=O)N3CCN(C(=O)C4(O)CCC4)C[C@H]3C)nc12` [Compound I-178], the IC50 in assay [1] was found to be 4.8 µM; in assay [2], 8.3 µM; in assay [3] it was 43 µM; in assay [4], 14 µM.

As to `CCC1(C)C(=O)NCCN1C(=O)c1cn2nc(-c3ccc(F)cc3)cc(C(C)C)c2n1` (stereo not shown) [Compound I-179], the IC50 in assay [1] was determined as 0.003 µM; in assay [2], 0.011 µM; in assay [3], 6.9 µM; in assay [4], 8.5 µM.

As a reminder, the IC50 is the point on the concentration scale where inhibition reaches its midpoint.
